Source: patent US9884854B2, “N-[(pyrimidinylamino)propanyl]-and N[(pyrazinylamino)proppanyl]arylcarboxamides” (Boehringer Ingelheim International GmbH, priority 2016, dated 2018)
Read-outs that look alike come from different tables or passages of the source.

Experiments:
human MDR1 P-gp = experiment: Assay D: efflux in MDCK cells transfected with the human MDR1 gene; type: in vitro ADME, canine; conditions: dog; MDCK-MDR1 monolayers, pH 7.4, 37° C.; read-out: MDCK efflux ratio (BA/AB)
Procedure: The MDCK assay provides information on the potential of a compound to pass the blood brain barrier. Permeability measurements across polarized, confluent MDCK-MDR1 cell monolayers grown on permeable filter supports are used as an in vitro absorption model: apparent permeability coefficients (PE) of the compounds across the MDCK-MDR1 cell monolayers are measured (pH 7.4, 37° C.) in apical-to-basal (AB) and basal-to-apical (BA) transport direction. The AB permeability (PEAB) represents drug absorption from the blood into the brain and the BA permeability (PEBA) drug efflux from the brain back into the blood via both, passive permeability as well as active transport mechanisms mediated by efflux and uptake transporters that are expressed on the MDCK-MDR1 cells, predominantly by the overexpressed human MDR1 P-gp. Identical or similar permeabilities in both transport directions indicate passive permeation, vectorial permeability points to additional active transport mechanisms. Higher PEBA than PEAB (PEBA/PEAB>5) indicates the involvement of active efflux mediated by MDR1 P-gp, which might compromises the goal to achieve sufficient brain exposure. Therefore this assay provides valuable support for selection of compounds applicable for further in vivo testing. High permeability not limited by efflux at the blood brain barrier is a favourable characteristic for compounds that are to be used for drugs acting primarily in the CNS
D. Assessment of Efflux in Madin-Darby Canine Kidney (MDCK) Cells Transfected with the Human MDR1 Gene
Apparent permeability coefficients (PE) of the compounds across the MDCK-MDR1 cell monolayers are measured (pH 7.4, 37° C.) in apical-to-basal (AB) and basal-to-apical (BA) transport direction. AB permeability (PEAB) represents drug absorption from the blood into the brain and BA permeability (PEBA) drug efflux from the brain back into the blood via both passive permeability as well as active transport mechanisms mediated by efflux and uptake transporters that are expressed on the MDCK-MDR1 cells, predominantly by the overexpressed human MDR1 P-gp. The compounds are assigned to permeability/absorption classes by comparison of the AB permeabilities with the AB permeabilities of reference compounds with known in vitro permeability and oral absorption in the human. Identical or similar permeabilities in both transport directions indicate passive permeation, vectorial permeability points to additional active transport mechanisms. Higher PEBA than PEAB indicates the involvement of active efflux mediated by MDR1 P-gp. Active transport is concentration-dependently saturable.
MDCK-MDR1 cells (1-2×10e5 cells/1 cm2 area) are seeded on filter inserts (Costar transwell polycarbonate or PET filters, 0.4 μm pore size) and cultured (DMEM) for 7 days. Subsequently, the MDR1 expression is boosted by culturing the cells with 5 mM sodium butyrate in full medium for 2 days. Compounds are dissolved in appropriate solvent (like DMSO, 1-20 mM stock solutions). Stock solutions are diluted with HTP-4 buffer (128.13 mM NaCl, 5.36 mM KCl, 1 mM MgSO4, 1.8 mM CaCl2, 4.17 mM NaHCO3, 1.19 mM Na2HPO4×7H2O, 0.41 mM NaH2PO4×H2O, 15 mM HEPES, 20 mM glucose, 0.25% BSA, pH 7.4) to prepare the transport solutions (0.1-300 μM compound, final DMSO<=0.5%). The transport solution (TL) is applied to the apical or basolateral donor side for measuring A-B or B-A permeability (3 filter replicates), respectively. The receiver side contains the same buffer as the donor side. Samples are collected at the start and end of experiment from the donor and at various time intervals for up to 2 hours also from the receiver side for concentration measurement by HPLC-MS/MS or scintillation counting. Sampled receiver volumes are replaced with fresh receiver solution.

OX2R = biological target: T1, OX2R (Homo sapiens, UniProt O43614); conditions: cited from earlier work
T1 sequence (O43614 1-444): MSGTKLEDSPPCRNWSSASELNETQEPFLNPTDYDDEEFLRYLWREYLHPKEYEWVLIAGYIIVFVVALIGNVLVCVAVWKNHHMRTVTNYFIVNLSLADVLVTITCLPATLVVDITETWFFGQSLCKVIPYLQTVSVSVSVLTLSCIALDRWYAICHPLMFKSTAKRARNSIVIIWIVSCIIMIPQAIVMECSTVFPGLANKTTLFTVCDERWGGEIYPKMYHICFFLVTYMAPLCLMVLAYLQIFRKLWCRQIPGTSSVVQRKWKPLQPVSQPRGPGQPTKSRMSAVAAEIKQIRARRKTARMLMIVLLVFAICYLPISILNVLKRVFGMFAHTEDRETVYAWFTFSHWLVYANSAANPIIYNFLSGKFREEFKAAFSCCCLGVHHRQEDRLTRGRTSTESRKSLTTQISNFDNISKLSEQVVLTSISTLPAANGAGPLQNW

OX1R = biological target: T2, OX1R (Homo sapiens, UniProt O43613); conditions: cited from earlier work
T2 sequence (O43613 1-425): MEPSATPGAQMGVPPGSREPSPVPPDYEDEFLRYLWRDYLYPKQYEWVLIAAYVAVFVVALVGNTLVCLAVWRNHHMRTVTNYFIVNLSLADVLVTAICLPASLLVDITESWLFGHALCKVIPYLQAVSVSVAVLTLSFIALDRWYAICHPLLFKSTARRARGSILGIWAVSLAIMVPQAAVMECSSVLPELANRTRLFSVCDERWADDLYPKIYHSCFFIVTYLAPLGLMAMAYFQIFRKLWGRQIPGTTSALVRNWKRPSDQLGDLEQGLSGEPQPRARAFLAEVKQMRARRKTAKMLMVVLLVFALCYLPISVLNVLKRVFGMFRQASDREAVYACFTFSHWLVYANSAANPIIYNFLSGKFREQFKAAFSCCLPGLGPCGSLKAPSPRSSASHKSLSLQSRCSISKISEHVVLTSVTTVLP

human Orexin 1 receptor = biological target: T3, human Orexin 1 receptor (Homo sapiens, UniProt O43613); experiment: Assay A: OX1R IP1 (in vitro OX1R potency); type: cell-based
T3 construct: stably expressing the full-length human Orexin 1 receptor and the aequorin photoprotein; expressed in transfected cells; host or cells: CHO-K1 (CHO-K1/hOx1), co-expressing aequorin
T3 sequence (O43613 1-425): T2 sequence (O43613 1-425)
Description: Activation of the orexin receptors expressed in cell lines results in an increase in intracellular IP3 concentration. IP1, a downstream metabolite of IP3, accumulates in cells following receptor activation and is stable in the presence of LiCl. Using Homogeneous Time-Resolved Fluorescence technology with Lumi4-Tb cryptate (commercially available from Cisbio Bioassay.) and a suitable fluorescence plate reader. […] This technique is used to characterize pharmacological modification of the orexin receptors.
A. In Vitro Testing of OX1R Potency: OX1R IP1
IP1 measurements are performed in CHO-K1 cells stably expressing the full-length human Orexin 1 receptor and the aequorin photoprotein. Cells are cultivated in Ham's nutrient mixture F12 medium with 10% fetal calf serum, in a 37° C., 95% humidity and 5% CO2 incubator. The CHO-K1/hOx1 cell mass is expanded to larger cell numbers. The cells are obtained as frozen cells in cryo-vials and stored until use at −150° C. […] In preparation for the assay, 24 hours before the assay, the cells are thawed at 37° C. and immediately diluted with cell culture medium. After centrifugation, the cell pellet is re-suspended in medium and then distributed into the assay plates with a density of 10000 cells/25 μL per well. The plates are incubated for one hour at room temperature to reduce edge effects before they are incubated for 24 hours at 37° C./5% CO2. Compounds are prepared by an 8-point serial dilution in DMSO and a final dilution step into assay buffer (HBSS with 20 mM HEPES, 0.1% BSA and 50 mM LiCl, pH 7.4) to ensure a final DMSO concentration of 1% in the assay.
On the day of the assay, cells in the plate are washed twice with 60 μL assay buffer (20 μL buffer remained in the wells after washing), followed by adding 5 μL per well of compounds diluted in assay buffer. After 15 minutes of incubation at room temperature 5 μL per well of Orexin A peptide (final concentration: 0.5 nM, and/or 50 nM) dissolved in assay buffer is added to the assay plate. The assay plate is incubated for 60 minutes at 37° C. Then 5 μl per well of Anti-IP1-Cryptate Tb solution and 5 μl per well of IP1-d2 dilution are added and the plate is incubated for a further 60 minutes light protected at room temperature. […] 8-point four parametric non-linear curve fitting and determination of IC50 values and Hill slopes is performed using a regular analysis software e.g. AssayExplorer (Accelrys).
Kb values from Assay A (OX1R) and Assay B (OX2R) can then provide a selectivity ratio which is independent of the agonist (Orexin A) concentration.

[1] = corresponds to pIC50, Table 3 of WO2016/034882

| Compound | efflux ratio (human MDR1 P-gp) | other results |
| --- | --- | --- |
| CCN(C(=O)c1nccnc1-c1ccccc1)[C@@H](C)CNc1ncc(C(F)(F)F)cn1 [Example 21] | < 3 |  |
| CC[C@@H](CNc1ncc(C(F)(F)F)cn1)N(C)C(=O)c1c(F)cccc1-n1nccn1 [Ex 91 in WO2016/034882] | < 3 | OX2R pIC50 (OX2R; Table 3 of WO2016/034882): < 5.1; IC50 (OX2R; [1]): ≥ 7.95 µM |
| CCN(C(=O)c1cccc(F)c1-n1nccn1)[C@@H](C)CNc1cnc(C(F)(F)F)cn1 [Example 24] | 3 to 5 |  |
| CC[C@@H](CNc1ncc(C(F)(F)F)cn1)N(C)C(=O)c1nc(C)ccc1-n1cccn1 [Ex 90 in WO2016/034882] | < 3 | OX2R pIC50 (OX2R; Table 3 of WO2016/034882): < 6.0; OX2R IC50/OX1R IC50 (OX1R; Table 3 of WO2016/034882): Table 3: >526 |
| CC[C@@H](CNc1ncc(C(F)(F)F)cn1)N(C)C(=O)c1nc(C)ccc1-n1nccn1 [Ex 46 in WO2016/034882] | < 3 | OX2R pIC50 (OX2R; Table 2 of WO2016/034882): < 5.0; OX2R pIC50 (OX2R; Table 3 of WO2016/034882): < 5.0; IC50 (OX2R; corresponds to pIC50, Table 2 of WO2016/034882): > 10 µM; IC50 (OX2R; [1]): ≥ 10 µM; OX2R IC50/OX1R IC50 (OX1R; Table 1 of WO2016/034882): 390; OX2R IC50/OX1R IC50 (OX1R; Table 2 of WO2016/034882): > 312; OX2R IC50/OX1R IC50 (OX1R; Table 3 of WO2016/034882): 3200 |
| CCN(C(=O)c1cc(F)ccc1-n1nccn1)[C@@H](C)CNc1ncc(C(F)(F)F)cn1 [Example 5] | < 3 |  |
| CCN(C(=O)c1ccc(F)c(F)c1-n1nccn1)[C@@H](C)CNc1ncc(C(F)(F)F)cn1 [Example 4] | < 3 |  |
| CCN(C(=O)c1ccccc1-n1nccn1)[C@@H](C)CNc1cnc(C(F)(F)F)cn1 [Example 22] | 3 to 5 |  |
| CCN(C(=O)c1ccc(F)cc1-c1nnc(C)o1)[C@@H](C)CNc1cnc(C(F)(F)F)cn1 [Example 23] | 3 to 5 |  |
| CCN(C(=O)c1ncccc1-c1ccccc1)[C@@H](C)CNc1ncc(C(F)(F)F)cn1 [Example 19] | < 3 |  |
| CCN(C(=O)c1ccccc1-c1noc(C)n1)[C@@H](C)CNc1ncc(C(F)(F)F)cn1 [Example 14] | < 3 |  |
| CC[C@@H](CNc1cnc(C(F)(F)F)cn1)N(C)C(=O)c1cc(Cl)ccc1-n1nccn1 [Ex 40 in WO2016/034882, reference compound] | < 3 | OX2R IC50/OX1R IC50 (OX1R; Table 3 of WO2016/034882): Table 3: 156 |
| CCN(C(=O)c1c(F)cccc1-c1ncccn1)[C@@H](C)CNc1ncc(C(F)(F)F)cn1 [Example 13] | < 3 |  |
| CCN(C(=O)c1nc(C)ccc1-n1cccn1)[C@@H](C)CNc1ncc(C(F)(F)F)cn1 [Example 12] | < 3 | higher potency at OX1R (human Orexin 1 receptor; versus Example 90 in WO2016/034882): at least 3 fold |
| CCN(C(=O)c1ccc(F)cc1-c1ncccn1)[C@@H](C)CNc1ncc(C(F)(F)F)cn1 [Example 16] | < 3 |  |
| CCN(C(=O)c1cncnc1-c1ccccc1)[C@@H](C)CNc1ncc(C(F)(F)F)cn1 [Example 20] | < 3 |  |
| CC[C@@H](CNc1ncc(C(F)(F)F)cn1)N(C)C(=O)c1nc(C)ccc1-c1ncccn1 [Ex 84 in WO2016/034882, reference compound] | < 3 | OX2R IC50/OX1R IC50 (OX1R; Table 3 of WO2016/034882): Table 3: 526 |
| CCN(C(=O)c1c(F)cccc1-n1nccn1)[C@@H](C)CNc1ncc(C(F)(F)F)cn1 [Example 7] | < 3 | more potent at OX1R (human Orexin 1 receptor; versus Example 91 in WO2016/034882): 25 fold |
| CC[C@@H](CNc1ncc(C(F)(F)F)cn1)N(CC)C(=O)c1nc(C)ccc1-n1nccn1 [Ex 73 in WO2016/034882] |  | OX2R pIC50 (OX2R; Table 3 of WO2016/034882): < 6.0; IC50 (OX2R; [1]): > 1 µM |
| CCN(C(=O)c1cc(F)cnc1-n1nccn1)[C@@H](C)CNc1ncc(C(F)(F)F)cn1 [Example 10] | < 3 |  |
| CCN(C(=O)c1cccc(F)c1-c1ncccn1)[C@@H](C)CNc1ncc(C(F)(F)F)cn1 [Example 11] | 3 to 5 |  |
| CCN(C(=O)c1cc(F)ccc1-c1ncccn1)[C@@H](C)CNc1ncc(C(F)(F)F)cn1 [Example 15] | < 3 |  |
| CCN(C(=O)c1cc(C#N)ccc1-n1nccn1)[C@@H](C)CNc1ncc(C(F)(F)F)cn1 [Example 8] | 3 to 5 |  |
| CCN(C(=O)c1ccc(F)cc1-n1nccn1)[C@@H](C)CNc1ncc(C(F)(F)F)cn1 [Example 2] | < 3 |  |
